Measurements: US12692232B2, “Indole carboxamide compound, preparation therefor and use thereof” (NANJING RUISHUNING MEDICAL TECHNOLOGY CO., LTD., priority 2021, dated 2026)

Legend:
[1] = system: H22 liver subcutaneous transplanted tumor; assay: Mouse model of H22 liver subcutaneous transplanted tumor; type: in vivo
Procedure: The method was as follows:
Experimental procedure: H22 hepatoma cell suspension was adjusted to 1×10^7/mL after dilution and counting with normal saline, and 0.2 mL per mouse was inoculated on the back of the mice. After 24 hours, the mice were weighed and administered drug at a dose of 0.1 mL/10 g once a day, wherein the mice in the solvent control group and the treatment groups were administered 0.9% sodium chloride solution and the compound of the present invention, respectively, for 14 days, and the mice in the CTX group were injected intraperitoneally for 14 days. The mice were weighed after 14 days. The animals were executed and the tumor blocks were removed and weighed separately. The tumor inhibition rate was calculated according to the following formula: tumor inhibition rate (%)=(1−average tumor weight in a treatment group/average tumor weight in the solvent control group)×100%.

[2] = system: mouse model of renal fibrosis (UUO); assay: Mouse model of renal fibrosis (unilateral ureteral obstruction, UUO); type: in vivo; conditions: for urea nitrogen level: model 17.56±0.48; for serum creatinine level: model 32.48±0.87; for urine protein level: model 888.5±264.8; for extent of renal fibrosis, pathological staining (H&E, Masson, Sirius red): FIG. 2, control compound 25 mg/kg, losartan 50 mg/kg; for body weight compared with the UUO model group / kidney weight compared with the UUO model group: gavage once daily 14 days, not statistically different (P>0.05)
Procedure: The therapeutic effect of the compounds of the present invention (as exemplified by Compound 1-1 obtained in Example 1) on renal fibrosis was determined using a mouse model of renal fibrosis. The method was as follows:
Grouping of animals: male C57BL/6J mice aged 8 weeks were given adaptive feeding for 3 days and grouped into a sham operation group, a sham operation-treatment group, a Unilateral ureteral obstruction (UUO) model group, a low-dose (10 mg/kg) treatment group, a medium-dose (25 mg/kg) treatment group, a high-dose (50 mg/kg) treatment group, a medium-dose (25 mg/kg) treatment group of indole analogue 3-[(1-methyl-1H-indole-2-carbonyl)amino]propionic acid disclosed in CN2019107285315, and a positive control group of losartan (50 mg/kg), with 10 animals in each group. Mice in the model and the treatment groups were anesthetized by intraperitoneal injection of 0.5% sodium pentobarbital at a dose of 0.1 mL/10 g. The mice were fixed on the operating table and cut open in layers from the right side of the mid-abdomen to locate the left kidney, and the ends of the ureter were ligated, while the ureter was cut off between the two ligations; the sham operation group was operated as described above and the ligations were not performed. Post-operative organs were repositioned, sutured, and sterilized with iodophor after suturing was completed. Immediately after operation, the drug was administered by gavage once daily for 14 days. Urine sample collection: animals were placed in separate metabolic cages by group on days 0, 5, 10 and 14 after modelling, without food or water, and urine samples were collected from each group of mice.
The protein levels in urine were determined using Coomassie brilliant blue (CBB) method by using urine protein quantitative test kit (Nanjing Jiancheng Bioengineering Institute). CBB working solution was prepared according to the kit instructions. 0.05 mL of each urine sample was mixed with 3 mL of CBB working solution, the mixture was left to stand for 5 min, and the absorbance value of each sample was determined at 595 nm. The protein levels in each group of urine samples were calculated according to the protein standardization formula: urine protein levels (mg/L)=(measured OD−blank OD)/(standard OD−blank OD)×563 mg/L.
Collection of serum sample: orbital blood from each mouse was collected in an EP tube, placed at 37° C. for 20 minutes, and centrifuged to obtain the upper layer of serum.
Collection of plasma sample: orbital blood from each mouse was collected in an anticoagulation tube, mixed well and stored at 4° C. for later use.
Determination of creatinine levels in urine and serum by the picric acid colorimetric method: creatinine levels in urine and serum were determined by using the creatinine test kit (Nanjing Jiancheng Bioengineering Institute). According to the kit instructions, 1.5 mL of urine sample or serum sample and 0.5 mL of picric acid solution, 0.5 mL of 0.5 mol/L sodium hydroxide solution were mixed, heated in water bath at 37° C. for 10 minutes. The absorbance value of each sample was determined using a UV spectrophotometer at a wavelength of 510 nm. Creatinine levels in samples of each group were calculated according to the formula: creatinine level (μmol/L) in serum or urine=(measured OD value−blank OD value)/(standard OD value−blank OD value)×50 μmol/L×(dilution ratio 201).
Determination of urea nitrogen level in plasma by diacetyl monoxime method: urea nitrogen level was determined was determined by using blood urea nitrogen (BUN) test kit (Nanjing Jiancheng Bioengineering Institute). According to the kit instructions, 0.05 mL of anticoagulated plasma samples were mixed with 1 mL of oxime solution and 1 mL of acid working solution, and the mixtures were placed in a boiling water bath for 15 min. A UV-visible spectrophotometer was used to determine the absorbance values of each tube at a wavelength of 520 nm. […]

Cn1c(C(=O)NCCC(=O)O)cc2ccccc21 [3-[(1-methyl-1H-indole-2-carbonyl)amino]propionic acid, reference compound]
tumor inhibition rate ([1]; 25 mg/kg once a day 14 days): 52.8%
creatinine level reduced compared with the model group ([2]; 25 mg/kg gavage 14 days): 18.3%
urea nitrogen level reduced compared with the model group ([2]; 25 mg/kg gavage 14 days): 20.6%
urine protein level reduced compared with the model group ([2]; 25 mg/kg gavage 14 days): 30.1%
urea nitrogen level ([2]; 25 mg/kg gavage 14 days): 13.94 ± 0.42 mmol/L
serum creatinine level ([2]; 25 mg/kg gavage 14 days): 26.52 ± 0.86 µmol/L
urine protein level ([2]; 25 mg/kg gavage 14 days): 621 ± 81.3 mg/L
extent of renal fibrosis, pathological staining (H&E, Masson, Sirius red) [2]: shows less improvement in fibrotic tissue proliferation and renal tubular lumen dilation
body weight compared with the UUO model group [2]: slight increase in body weight
kidney weight compared with the UUO model group [2]: slight decrease in kidney weight

CC(=O)OCCCNC(=O)c1c(C=O)c2ccccc2n1C [compound 1-1, propyl 3-[(3-formyl-1-methyl-1H-indole-2-carbonyl)amino]acetate]
tumor inhibition rate ([1]; 25 mg/kg once a day 14 days): 60.5%
tumor inhibition rate ([1]; 50 mg/kg once a day 14 days): 69.4%
creatinine level reduced compared with the model group ([2]; 10 mg/kg gavage 14 days): 17.2%
urea nitrogen level reduced compared with the model group ([2]; 10 mg/kg gavage 14 days): 24.7%
urine protein level reduced compared with the model group ([2]; 10 mg/kg gavage 14 days): 27.4%
urea nitrogen level ([2]; 10 mg/kg gavage 14 days): 13.23 ± 0.62 mmol/L
serum creatinine level ([2]; 10 mg/kg gavage 14 days): 26.88 ± 0.86 µmol/L
urine protein level ([2]; 10 mg/kg gavage 14 days): 645 ± 165 mg/L
creatinine level reduced compared with the model group ([2]; 25 mg/kg gavage 14 days): 20.7%
urea nitrogen level reduced compared with the model group ([2]; 25 mg/kg gavage 14 days): 30.0%
urine protein level reduced compared with the model group ([2]; 25 mg/kg gavage 14 days): 37.7%
urea nitrogen level ([2]; 25 mg/kg gavage 14 days): 12.30 ± 0.33 mmol/L
serum creatinine level ([2]; 25 mg/kg gavage 14 days): 25.76 ± 1.31 µmol/L
urine protein level ([2]; 25 mg/kg gavage 14 days): 554 ± 143 mg/L
creatinine level reduced compared with the model group ([2]; 50 mg/kg gavage 14 days): 27.6%
urea nitrogen level reduced compared with the model group ([2]; 50 mg/kg gavage 14 days): 37.7%
urine protein level reduced compared with the model group ([2]; 50 mg/kg gavage 14 days): 52.6%
urea nitrogen level ([2]; 50 mg/kg gavage 14 days): 10.94 ± 0.42 mmol/L
serum creatinine level ([2]; 50 mg/kg gavage 14 days): 23.52 ± 0.86 µmol/L
urine protein level ([2]; 50 mg/kg gavage 14 days): 421 ± 82.3 mg/L
extent of renal fibrosis, pathological staining (H&E, Masson, Sirius red) [2]: significantly attenuates tubular lumen dilatation and glomerular atrophy in a dose-dependent manner
body weight compared with the UUO model group [2]: slight increase in body weight
kidney weight compared with the UUO model group [2]: slight decrease in kidney weight
